Key:
[1] = test system: human naïve state stem cells; experiment: Stem cell drug screen on naïve state stem cells (pluripotency, proliferation, differentiation); format: cell-based; details: first panel (FIGS. 2, 7-10); small molecules 6 uM; 3 days; with or without NME7AB
Protocol: (§1) The stem cell screening assay, was performed in both the presence and absence of the stem cell growth factors: NME7AB for growing naïve stem cells or FGF for growing primed stem cells. If the cognate growth factor was present, then the biological or small molecule would have to compete away the growth factor to get an effect. Therefore, we expected to see more of an effect when the growth factor, FGF for primed stem cells or NME7AB or NME1 dimers for naïve stem cells, was absent. The effect of the compounds on stem cells was visually determined and compounds were ranked 0-4, with 4 being the greatest effect and 0 being no observable effect. The major effect that was observed was a change from pluripotent stem cell morphology, which is a cobblestone pattern of small round cells with a large nucleus to cytoplasm ratio, to that of differentiating stem cells, which are elongated, large and flattened cells with a smaller nucleus to cytoplasm ratio. […] The compounds were added to a final concentration of 6 uM to either naïve state stem cells or primed state stem cells. In this particular case, the naïve state stem cells were maintained in a naïve state by culturing in a media containing NME7AB or NME1 dimers. However, other methods such as 2i and 5i (Silva et al., 2008, Nichols and Smith, 2009, Theunissen et al., 2014)] can be used to maintain stem cells in a more naïve state. In this case primed state stem cells were cultured in bFGF over a layer of MEFs, although it is known that any bFGF containing media will maintain stem cells in the primed state.
(§2) Percent inhibition of cancer cell migration was performed in a wound healing assay. The percent area that the invading cancer cells occupied, in the presence of a drug candidate compared to the controls, was quantified by Image J cell software which enables cell counting from photographs. IC50's were calculated by performing migration experiments at several compound concentrations and then applying Hill's equation. Inhibition of cancer cell proliferation was quantified by automated cell counting in the presence or absence of a drug candidate. Here, the inhibition of cancer cell proliferation was scored 1 if proliferation was inhibited by 25%, 2 if inhibited by […] and 4 for the highest degree of inhibition of proliferation, and 0 for the lowest. The effect of the drug candidates on stem cell pluripotency or proliferation was scored by eye, based on cell morphology and cell density, with 0 being no change in morphology or cell number and 4 being the most profound effect, with the stem cells taking on the morphology of a differentiating cell, along with much fewer cells indicative of inhibition of proliferation. As an example, FIGS. 30A-30F show photographs of naïve stem cell, primed stem cell and fibroblast controls. FIGS. 31A-31F show the effect of compounds of the invention on naïve state stem cells, where the number of ‘+’ signs indicates the score from 0-4 of ability of compound to inhibit pluripotency, proliferation of naïve stem cells or ability to induce their differentiation. […] FIGS. 36-44 and 65-87 show photographs and IC50 graphs of the compounds of the invention, inhibiting cancer cell migration and invasion. Cancer cell migration is a hallmark of metastatic cancer.
Stem cells whether embryonic or induced pluripotent stem (iPS) cells were cultured in a minimal, serum-free media that contained human recombinant NME7AB at a concentration of 2-32 nM wherein 4-8 nM is preferred and 4 nM is more preferred. To facilitate surface attachment, cell culture plates were coated with an anti-MUC1* monoclonal antibody called MN-C3 or C3 or MN-C8 at a concentration of 2-100 μg/mL coating solution, wherein 3-50 ug/mL is preferred and 6-12.5 ug/mL is more preferred. In these experiments, 12.5 ug/mL of MN-C3 was used. Antibody coated plates were incubated at 4 degrees C. overnight prior to plating stem cells. A Rho kinase I inhibitor was added to enhance surface attachment. […]

cancer cells [2] = details: in vitro; stated as previously shown; cited from earlier work
[3] = test system: human primed state stem cells; experiment: Stem cell drug screen on primed state stem cells (pluripotency, proliferation, differentiation); format: cell-based; details: for induction of differentiation / effect on growth of primed state stem cells: treated for 3 days, JQ1 at 500 nM or 1 uM (FIGS. 11-12)
Protocol: as §1, §2
Stem cells whether embryonic or induced pluripotent stem (iPS) cells were cultured in a minimal, serum-free media that contained human recombinant bFGF at a concentration of 8 ng/mL. The stem cells were plated over a layer of inactivated mouse embryonic fibroblasts, aka MEFs, which secrete additional uncharacterized growth factors and cytokines.
Human naïve state and primed stem cells were cultured in parallel for at least 5 passages to guarantee normal differentiation-free growth. The stem cells were plated in 12-well cell culture plates with 50,000 cells per well. Cells were cultured in their respective media, either bFGF media or NME7AB media for 24 hours. […]

human fibroblasts = experiment: Effect on fibroblasts as surrogate for normal cells; format: cell-based; details: 500 nM final concentration (FIG. 24)
Text: However, fibroblasts are more differentiated than stem cells but are able to self-replicate for defined periods of time. We tested selected compounds of the invention to determine if these compounds were just cytotoxic or if they selectively affected stem cells and, importantly, cancer cells, but not normal, healthy cells. Here, we used fibroblasts as a surrogate for normal cells. […] […] Each compound was scored for its effect on fibroblast proliferation where “+” indicates 25% inhibition of fibroblast growth, “++” 50% inhibition and “+++” 75% inhibition of growth.

[4] = test system: fibronectin, vimentin, NF1; experiment: RT-PCR of markers of differentiation in naïve stem cells; format: cell-based, human
Text: The genes whose expression increased as a result of treatment with the compounds of the invention, in a concentration dependent manner, are fibronectin and vimentin, which both increase as stem cells initiate differentiation and NF1, which is one of the first genes to increase when stem cells begin to differentiate down the neural lineage. […] Thus, compounds of the invention that induce markers of differentiation are useful for the treatment of cancers, because cancer cells, by definition, have de-differentiated, which allows them to continually self-replicate. […] Expression of metastatic marker E-cadherin was reduced and expression of differentiation markers fibronectin, vimentin and NF1 were increased.

[5] = test system: human naïve state stem cells; experiment: Stem cell drug screen on naïve state stem cells (pluripotency, proliferation, differentiation); format: cell-based; details: JQ1 at 500 nM or 1 uM, naïve cells from NME7AB or NME1 dimers (FIGS. 13-16)
cancer cells [6] = details: NME7AB-driven transformation; stated as previously shown; cited from earlier work

For `COC(=O)c1ccc(C2c3[nH]c4ccccc4c3CCN2C(=O)c2cccc(Cl)c2)cc1` (centres unmarked) [MN0642], the “induced differentiation / inhibited pluripotency and growth of naïve state stem cells” value [1] is listed as “induced differentiation” and the “inhibition of cancer cell growth” value (cancer cells [2]) is listed as “inhibit the growth of cancer cells in vitro”.
With `Cc1sc2c(c1C)C(c1ccc(Cl)cc1)=N[C@@H](CC(=O)OC(C)(C)C)c1nnc(C)n1-2` [JQ1(+), reference compound] the “effect on the size of primed stem cell colonies” value ([3]; treated for 3 days (FIG. 11)) was “modest effect”, the “induction of differentiation / effect on growth of primed state stem cells” value [3] was “None of these agents appeared to induce differentiation” and the “induction of differentiation / effect on growth of primed state stem cells” value ([3]; listed as JQI) was “not primed stem cell growth”. For the same compound, the “effect on human fibroblasts” value (human fibroblasts) was “same effect on fibroblasts as it does on primed state stem cells”, the “up-regulation of markers of differentiation in stem cells” value [4] was “did not cause up-regulation of markers of differentiation” and the “effect on naïve state stem cell differentiation and growth” value [5] was “dramatically induced differentiation of naïve state stem cells and inhibited their growth”. The “effect on naïve state stem cell differentiation and growth” value ([5]; listed as JQI) was “inhibitory effect”.
For “FLR peptide: synthetic peptide corresponding to the extracellular domain of MUC1*, FLR also known as PSMGFR (SEQ ID NO:3) (GTINVHDVETQFNQYKTEAASRYNLTISDVSVSDVPFPFSAQSGA; the extracellular domain of Native Primary Sequence of the MUC1 Growth Factor Receptor (nat-PSMGFR - an example of "PSMGFR"))”, the “induced differentiation / inhibited pluripotency and growth of naïve state stem cells” value [1] is given as “induced differentiation” and the “inhibition of the transition of regular cancer cells to metastatic cancer cells” value (cancer cells [6]) is given as “inhibit the transition”.
With `Cc1[nH]c(/C=C2\C(=O)Nc3ccc(S(=O)(=O)N(C)c4cccc(Cl)c4)cc32)c(C)c1C(=O)N1CCN(C)CC1` [SU11274] the “up-regulation of markers of differentiation in stem cells” value [4] was “did not cause up-regulation of markers of differentiation”.
For `CCCCNC(=O)N1CCc2c([nH]c3ccccc23)C1C(C)c1ccccc1` (centres unmarked) [MN1130], the “induced differentiation / inhibited pluripotency and growth of naïve state stem cells” value [1] was “induced differentiation” and the “effect on primed stem cells” value ([3]; first panel (FIGS. 2-6), small molecules 6 uM, 3 days, with or without FGF) was “modest effect”.

Reference: patent US12630512B2, “Agents for differentiating stem cells and treating cancer” (Minerva Biotechnologies Corporation, priority 2017, dated 2026)
